Measurements: US20090312396A1, “METHODS FOR CANCER TREATMENT USING TAK1 INHIBITORS” (AstraZeneca AB, priority 2006, published 2009)
Like-named read-outs stand apart in the source and are kept apart here.

Key:
Test in all cases: AlamarBlue proliferation assay, GI50
ARH77 = assay type: cell-based; conditions: Homo sapiens, ARH-77, 72 hours
Protocol: (§1) The TAK1 inhibitors are known in the art (see for example, WO 2003010158, WO 2003010163 and WO2004063186 the disclosures of which are incorporated by reference herein). All cell lines were plated at 10,000 cells/well in flat-bottomed 96 well plates and dosed with test compounds in triplicate over a 10 point dosing range from 0 to 30 μmolesL^−1. All cell lines were incubated with test compounds for a total of 72 hours. Background levels were determined for a control (undosed) plate within 2 hours of dosing test compounds. Following the dosing period, the extent of proliferation was measured by adding 1/10 (vol/vol) AlamarBlue reagent to every well and incubating the plates for a further 4 hours. The reaction was stopped by the addition of SDS to a final concentration of 0.1%. Fluorescence was measured at 545 nm (excitation) and 600 nm (emission). Growth inhibition 50 (GI50) values were determined for each test compound across the panel.

DOHH2 = assay type: cell-based; conditions: Homo sapiens, DOHH-2, 72 hours, Table 4, read-out: GI50 DOHH2 FL
Protocol: as §1

HEL92.1.7 = assay type: cell-based; conditions: Homo sapiens, HEL 92.1.7, 72 hours, Table 4, read-out: GI50 HEL92.1.7 Erythroleukemia
Protocol: as §1

Jurkat = assay type: cell-based; conditions: Homo sapiens, 72 hours, Table 4, read-out: GI50 Jurkat T-ALL
Protocol: as §1

KG1a = assay type: cell-based; conditions: Homo sapiens, KG-1a, 72 hours, Table 4, read-out: GI50 KG1a AML
Protocol: as §1

Karpas231 = assay type: cell-based; conditions: Homo sapiens, 72 hours, Table 4, read-out: GI50 Karpas231 B-ALL
Protocol: as §1

MEC1 = assay type: cell-based; conditions: Homo sapiens, 72 hours
Protocol: as §1

OCI-LY19 = assay type: cell-based; conditions: Homo sapiens, 72 hours, Table 4, read-out: GI50 OCI-LY19 DLBCL
Protocol: as §1

SUDHL4 = assay type: cell-based; conditions: Homo sapiens, SU-DHL-4, 72 hours, Table 4, read-out: GI50 SUDHL4 DLBCL
Protocol: as §1

WSU-NHL = assay type: cell-based; conditions: Homo sapiens, 72 hours, Table 4, read-out: GI50 WSU-NHL B-NHL
Protocol: as §1

Raji = assay type: cell-based, human; conditions: 72 hours
Protocol: as §1

AM0-1 = assay type: cell-based; conditions: Homo sapiens, 72 hours, Table 5, read-out: GI50 AM0-1 plasmacytoma
Protocol: as §1
(§2) The experiments to generate the results for both Tables 5 and 6 were performed as described above.

DERL 2 = assay type: cell-based; conditions: Homo sapiens, T-cell, 72 hours, Table 6, read-out: GI50 DERL 2 T cell lymphoma
Protocol: as §1, §2

IM-9 = assay type: cell-based; conditions: Homo sapiens, 72 hours, Table 5, read-out: GI50 IM-9 B lymph
Protocol: as §1, §2

JEKO-1 = assay type: cell-based; conditions: Homo sapiens, 72 hours, Table 6, read-out: GI50 JEKO-1 MCL
Protocol: as §1, §2

JJN-3 = assay type: cell-based; conditions: Homo sapiens, 72 hours, Table 5, read-out: GI50 JJN-3 plasma cell leukemia
Protocol: as §1, §2

JVM-3 = assay type: cell-based; conditions: Homo sapiens, 72 hours, Table 6, read-out: GI50 JVM-3 B-PLL
Protocol: as §1, §2

KARPAS-620 = assay type: cell-based; conditions: Homo sapiens, 72 hours, Table 5, read-out: GI50 KARPAS-620 plasma cell leukemia
Protocol: as §1, §2

L-363 = assay type: cell-based; conditions: Homo sapiens, 72 hours, Table 5, read-out: GI50 L-363 plasma cell leukemia
Protocol: as §1, §2

MOLP-8 = assay type: cell-based; conditions: Homo sapiens, 72 hours, Table 5, read-out: GI50 MOLP-8 Multiple myeloma
Protocol: as §1, §2

NAMALWA = assay type: cell-based; conditions: Homo sapiens, 72 hours, Table 6, read-out: GI50 NAMALWA Burkitts Lymphoma
Protocol: as §1, §2

RPMI-8226 = assay type: cell-based; conditions: Homo sapiens, 72 hours, Table 5, read-out: GI50 RPMI-8226 Multiple myeloma
Protocol: as §1, §2

Ramos = assay type: cell-based; conditions: Homo sapiens, 72 hours, Table 6, read-out: GI50 Ramos Burkitts Lymphoma
Protocol: as §1, §2

SC-1 = assay type: cell-based; conditions: Homo sapiens, 72 hours, Table 6, read-out: GI50 SC-1 FL
Protocol: as §1, §2

U937 = assay type: cell-based; conditions: Homo sapiens, U-937, 72 hours, Table 6, read-out: GI50 U937 Histiocytic lymphoma
Protocol: as §1, §2

WSU DLCL2 = assay type: cell-based; conditions: Homo sapiens, WSUDLCL2, 72 hours, Table 6, read-out: GI50 WSU DLCL2 B cell lymphoma
Protocol: as §1, §2

COC(C)(C)CNCc1ccc(-c2cc(NC(N)=O)c(C(N)=O)s2)cc1 [Compound 4, 3-[(aminocarbonyl)amino]-5-(4-{[(2-methoxy-2-methylpropyl)amino]methyl}phenyl)thiophene-2-carboxamide]
GI50 (ARH77; Table 4, read-out: GI50 ARH77 Plasma cell leukemia): 3.72 µM | GI50 (ARH77; Table 5, read-out: GI50 ARH-77 plasma cell leukemia): 3.72 µM | GI50 (DOHH2): 0.101 µM | GI50 (HEL92.1.7): 1.47 µM | GI50 (Jurkat): 10.1 µM | GI50 (KG1a): 1.09 µM | GI50 (Karpas231): 0.06 µM | GI50 (MEC1; Table 4, read-out: GI50 MEC1 B-CLL): 2.99 µM | GI50 (MEC1; Table 6, read-out: GI50 MEC-1 B-CLL): 2.99 µM | GI50 (OCI-LY19): 0.054 µM | GI50 (SUDHL4): 3.08 µM | GI50 (WSU-NHL): 0.27 µM | GI50 (Raji; Table 6, read-out: GI50 Raji Burkitts Lymphoma): > 30 µM | GI50 (Raji; Homo sapiens, Raji, Table 4, read-out: GI50 Raji Burkitts Lymphoma): > 30 µM | GI50 (AM0-1): 0.91 µM | GI50 (DERL 2): 0.31 µM | GI50 (IM-9): 0.21 µM | GI50 (JEKO-1): 0.29 µM | GI50 (JJN-3): 0.52 µM | GI50 (JVM-3): 0.14 µM | GI50 (KARPAS-620): 0.14 µM | GI50 (L-363): 0.35 µM | GI50 (MOLP-8): 0.09 µM | GI50 (NAMALWA): 2.96 µM | GI50 (RPMI-8226): 1.6 µM | GI50 (Ramos): 0.21 µM | GI50 (SC-1): 2.88 µM | GI50 (U937): 0.12 µM | GI50 (WSU DLCL2): 1.95 µM
